# In patent US20120082736A1, “Small-molecule TNF modulator to reduce the side effects of chemotherapy and radiotherapy” (GeneBlue Corporation, priority 2010, published 2012):
# Entries after “also recorded” stand apart in the source; their conditions may differ.
# Legend:
# [1] = test system: apoptotic liver cells; assay: TUNEL assay for apoptotic liver cells after liver irradiation (Example 8); format: in vivo, mice; details: for numbers of TUNEL positive cells induced by irradiation: 15 Gy, relative to non-irradiated controls, irradiated vehicle 4.1
# Experimental: Mice were pre-treated with various doses of UTL-5g (7.5, 15, 30, and 60 mg/kg, i.p.) or control vehicle at 1 hr prior to liver radiation with 15 Gy. […] Representative liver sections showing TUNEL positive cells (green) counter-stained with […] (4′-6-diamidino-2-phenylindole) for nuclei under fluorescent microscope (40×) (6B). RT: radiation treatment.
# To further analyze the radioprotective effect of UTL-5g, we examined the number of liver apoptotic cells by in situ TUNEL staining At the end of treatment, liver tissue sections were prepared, fixed and stained with TUNEL staining for apoptotic cells. There were “spontaneous” apoptotic liver cells in control animals as detected by TUNEL staining (20/five random fields), approximately 0.2% of total liver cells. […] The radioprotective effect of UTL-5g was dose-dependent.
# [2] = test system: mice; details: cited from earlier work
# [3] = test system: TNF-α; assay: TNF-α levels in plasma of cisplatin-treated mice (commercial assay kit, eBioscience); format: in vivo; details: UTL-5g 15, 30, 60 mg/kg ip 30 min before cisplatin 2.5 mg/kg, daily ×5; pooled plasma
# Experimental: FIG. 5. Effect of UTL-5g on TNF-α levels in plasma for mice treated with cisplatin. Gp 1, medium control (saline) only; Gp 2, saline followed by cisplatin (2.5 mg/kg) 30 min later; Gp 3, UTL-5g (15 mg/kg) followed by cisplatin 30 min later; Gp 4, UTL-5g (30 mg/kg) followed by cisplatin 30 min later; Gp 5, UTL-5g (60 mg/kg) followed by cisplatin 30 min later. Y axis represents the relative levels of TNF-α assuming 0% for Gp 1 (Control). Level of TNF-α on the figure is based on the average of 2 readings. […]
# Using the samples from the same animal study, TNF-α levels in plasma were analyzed. […]
compound,measurement,setting,value
Cc1cc(C(=O)Nc2ccc(Cl)cc2Cl)no1 [UTL-5g],"TUNEL positive cells, protective effect","[1]; UTL-5g 7.5 mg/kg i.p. 1 hr prior to 15 Gy, liver 2 hr after",no significant protective effect
same,numbers of TUNEL positive cells induced by irradiation,[1]; UTL-5g 15 mg/kg,3.3 fold
same,numbers of TUNEL positive cells induced by irradiation,[1]; UTL-5g 30 mg/kg,1.8 fold
same,numbers of TUNEL positive cells induced by irradiation,[1]; UTL-5g 60 mg/kg,1.4 fold
same,"number of apoptotic cells in liver, non-irradiated animals","[1]; UTL-5g alone at 30 and 60 mg/kg, no irradiation",slightly increased the number of apoptotic cells
same,LD50 (acute toxicity),[2],> 200 mg/kg
same,"TNF-α in plasma, effect of pretreatment",[3],lowered elevated TNF-α in plasma in a dose-dependent manner; also recorded: lowered the elevated levels of blood TNF-α induced by cisplatin in a dose dependent manner
